Experimental findings from patent US20120277312A1, “Ethylgallate and Related Compounds as a Treatment for Sepsis and Septic Shock” (priority 2009, published 2012) are described below.

Molecules are shown by their SMILES.

In experiment [1] the test system is lysozyme's vasodilatory effect in canine carotid artery preparation. As to the kind of experiment: Lysozyme-induced vasodilation in canine carotid artery preparation (in-vitro). The protocol:
Lysozyme produces vasodilation by intrinsically generating hydrogen peroxide (H2O2) that leads to activation of signaling pathways resulting in these hemodynamic effects (7).
Ethyl gallate is added to food as an antioxidant. It is the ethyl ester of gallic acid. Though found naturally in a variety of plant sources including walnuts (8), ethyl gallate is produced from gallic acid and ethanol (9). […] It is of note that if a substance could not inhibit lysozyme's effect in-vitro, then it would be worthless to pursue an in-vivo study.

The test system of experiment [2] is POX-induced vasodilation in carotid and superior mesenteric arterial preparations. As to the kind of experiment: Peroxacetic acid (POX)-induced vasodilation in carotid and superior mesenteric arterial preparations. On the set-up: species or system canine. The text has this:
POX is a hydroperoxide (slightly different from the molecule of hydrogen peroxide) that also may be released in septic shock by macrophages and inflammatory cells. […] However, the pathway by which POX caused vasodilation is much different than that caused by lysozyme. […] To some extent, therefore, the improvement in hemodynamics previously observed when ethyl-gallate was infused in our in-vivo study could have also been related to ethyl-gallate's inhibition of the POX pathway in addition to ethyl-gallate's inhibitory-effect on lysozyme mediated pathways.
The only similarity found between lysozyme and POX is that POX's mechanism of action is also independent of the endothelium and nitric oxide formation, since we could not prevent POX's vasodilatory effect by removal of the endothelium or by nitric oxide inhibition. In contrast to lysozyme, POX seems to cause vasodilation is by activation of an enzyme in the vascular tissue called prostaglandin H synthase (PHS). PHS has an important mechanism of action, in that after activation by hydroperoxides (such as POX), it can in turn activate the cyclooxygenase pathway leading to vasodilation.

Experiment [3] has as its target T1, catalase (Homo sapiens, UniProt P04040).
T1 sequence (P04040 2-527 limits assumed): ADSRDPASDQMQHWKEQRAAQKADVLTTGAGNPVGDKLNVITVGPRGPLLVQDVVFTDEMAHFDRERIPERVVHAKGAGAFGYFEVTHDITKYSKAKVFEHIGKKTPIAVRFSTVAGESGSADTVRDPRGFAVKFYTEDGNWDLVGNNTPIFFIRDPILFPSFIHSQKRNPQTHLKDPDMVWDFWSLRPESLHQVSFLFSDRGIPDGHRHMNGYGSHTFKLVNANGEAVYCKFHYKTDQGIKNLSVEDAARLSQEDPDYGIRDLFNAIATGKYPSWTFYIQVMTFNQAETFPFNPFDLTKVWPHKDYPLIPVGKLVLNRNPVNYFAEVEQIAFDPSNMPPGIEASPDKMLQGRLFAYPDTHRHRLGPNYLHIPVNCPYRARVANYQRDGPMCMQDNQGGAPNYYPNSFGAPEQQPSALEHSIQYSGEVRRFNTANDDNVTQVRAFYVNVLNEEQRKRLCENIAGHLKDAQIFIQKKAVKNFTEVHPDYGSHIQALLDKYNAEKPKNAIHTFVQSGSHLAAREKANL
As to the kind of experiment: Conversion of catalase to compound I (wave-scan spectroscopy). It counts as biochemical. The text has this:
This generation appears to involve the mechanism described by Wentworth et al in which proteins can utilize water as a catalyst to generate H2O2 (12) Once formed by lysozyme, H2O2 then reacts with intrinsic catalase to form a species of catalase termed Compound I (2) Compound I then acts to generate cyclic-guanosine monophosphate which in turn causes vasodilation. […] These as well as other mechanisms may account for the efficacy of ethyl-gallate treatment in septic shock.

On to `CCOC(=O)c1cc(O)c(O)c(O)c1` [ethyl gallate], for which the “prevention of vasodilation caused by lysozyme” value in experiment [1] (canine carotid artery and superior mesenteric arterial preparations) is listed as “prevented”. Besides, in experiment [1] (canine carotid artery preparation, in-vitro), the “block of lysozyme's vasodilatory effect” value is on record as “blocked”. For the same molecule, the “inhibition of vasodilation caused by POX” value in experiment [2] is listed as “inhibited”. Besides, the “inhibition of degradation of catalase to compound I” value in experiment [3] is listed as “can inhibit”.
